In a melting point compilation (Tetko et al.; mined from patent text by program, amines drawn as free bases though some values may be those of a salt) one finds melting point data, which are given here for 91 compounds.

Broadly, the melting point is the temperature, or range, at which the solid turns liquid.

`CN1C=CC(c2ccccc2)=C(O)C1` returned a melting point of 154 to 157 °C.

For `COC(=O)[C@H](Cc1cc(F)cc(F)c1)NC(=O)OCc1ccccc1`, the melting point was 54 °C.

As to `COc1cc(C(=O)c2cn(C)c(-c3cn(C)c4ccccc34)n2)cc(OC)c1OC`, the melting point was in the range of 164 to 166 °C.

For `C#CCNC(=S)NC1CCC(=O)c2sccc21` (stereo unspecified), the melting point lay within 130 to 136 °C.

On to `Nc1sc2c(c1C(=O)c1ccc(Cl)cc1)CCN(CCCc1ccccc1)C2`, for which the melting point is 98 to 100 °C.

In the case of `CC(C)n1nc(-c2cc(C#N)c(Cl)nc2-c2ccccc2)ccc1=O`, the melting point fell in the range of 191 to 192 °C.

The compound `COC(=O)c1nc2ccccc2c(N)c1C(=O)OC` gave a melting point of 167 to 168 °C.

`Nc1ccc(C2=NNC(=O)C3CC23)cc1` (stereo unspecified) registered a melting point of 230 to 231 °C.

With `CCC(CN1CCCCC1)C(=O)c1cc(-c2ccccc2)no1` (stereo unspecified), the melting point was in the range of 83 to 84 °C.

As to `CC1(C)SC(=O)C2OC=C(Br)C=C21` (stereo unspecified), the melting point was in the range of 63 to 72 °C.

Compound `Oc1ccc(CCNc2ncnc3nccnc23)cc1` came in with a melting point greater than 210 °C.

Regarding `c1ccc2cc(OCCCNN3CCCCC3)ccc2c1`, the melting point is 78 °C.

As for `CCOC(=O)COc1ccc(-c2noc3ccccc23)c(Cl)c1Cl`, the melting point was in the range of 88 to 89 °C.

Take `Cc1cc(Br)cnc1CCCCNc1ncc(Cc2cccnc2)cc1[N+](=O)[O-]`: the melting point lay in the range of 82 to 84 °C.

Compound `NS(=O)(=O)c1ccc(N2CCN(CC[C@H]3OCCc4ccccc43)CC2)cc1` displayed a melting point of 189 to 190 °C.

In turn, `CCn1c(=O)n(CCOCCOC)c(=O)c2c1ncn2Cc1ccccc1` registered a melting point of 140 °C.

As to `O=c1[nH]c(=O)n2c3c(cccc13)CCC2CO` (stereo unspecified), the melting point was in the range of 205 to 207 °C.

The compound `COc1ccc(CCCOc2c(C)cc(-c3noc(C)n3)cc2C)cn1` registered a melting point of 71 to 73 °C.

In the case of `CNC(=O)c1ccc(C(=O)OC)cc1N`, the melting point lay in the range of 167 to 168 °C.

The compound `N#Cc1c(-c2ccccc2)[nH]c(=O)c2cccnc12` returned a melting point of 292 to 295 °C.

The compound `COc1cc(COc2nn(Cc3ccccc3)cc2/C=C/C(=O)O)ccc1OCc1nc(-c2ccco2)oc1C` came in with a melting point of 175 to 176 °C.

The compound `CCCc1nnc2n1-c1sc(CC)cc1C(c1ccccc1Cl)=NC2NC(=O)c1ccc2ccccc2c1` (stereo unspecified) yielded a melting point of 226 to 227 °C.

The compound `CCNc1cncc(C(=NCCO[N+](=O)[O-])NC#N)c1` gave a melting point of 100 °C.

On to `Cn1cncc1CC(=O)c1ccc(Br)cc1`, for which the melting point was 109 °C.

Take `O=C(O)c1cc(OCCCOc2cccc(-c3ccccc3)c2)cc(OCCCOc2cccc(-c3ccccc3)c2)c1`: the melting point lay in the range of 65 to 69 °C.

In turn, `O=C(O)COc1cc(F)c(-c2ccccc2)cc1C(=S)NCc1cccc([N+](=O)[O-])c1` yielded a melting point of 177 to 179 °C.

Turning to `COC(=O)C(O)C(O)C1CC1` (stereo unspecified), the melting point fell in the range of 54 to 57 °C.

Take `O=Cc1cccc(-c2cccs2)n1`: the melting point lay in the range of 48 to 50 °C.

`CCCc1cc(COc2cc(CC)nc(C)c2OC)ccc1-c1ccccc1S(=O)(=O)Nc1noc(C)c1C` came in with a melting point of 63 to 65 °C.

In the case of `O=[N+]([O-])c1ccc(Oc2cc(Cl)ncn2)cc1`, the melting point was 125 to 127 °C.

In the case of `Clc1nccc(Oc2ccc3[nH]ccc3c2)n1`, the melting point was 169 to 176 °C.

`CC1(C)Oc2ccc([N+](=O)[O-])cc2[C@@H](O)[C@@H]1Br` (relative stereo) registered a melting point of 114 to 116 °C.

Take `COc1cccc(-c2c(NC(=O)Nc3c(C(C)C)cccc3C(C)C)c(=O)n(C)c3ncccc23)c1`: the melting point is 169 to 170 °C.

Consider `CNC(=O)C(C)Oc1cc(Oc2nn(C)c(C(F)(F)F)c2Cl)ccc1[N+](=O)[O-]` (stereo unspecified), for which the melting point is 140 to 142 °C.

Compound `COC(=O)c1ccc(OCC2CCCN(C)C2)cc1` (stereo unspecified) gave a melting point of 55 to 56 °C.

`C=CCc1c(C(=O)N(C)C)cn2cc(C)nc2c1OC(=O)C(C)(C)C` came in with a melting point of 178 to 180 °C.

Compound `Cn1ccn(CC#CCn2ccnc2)c1=O` gave a melting point of 106 to 109 °C.

As for `COC(=O)C(C)=CC1C(C(=O)OC(C)(C)N2C(=O)C=CC2=O)C1(C)C` (stereo unspecified), the melting point turned out to be 98.7 °C.

For `COc1ccc(Cl)cc1-c1[nH]c2cccc3c2c1CCNC3=O`, the melting point lay within 160 to 162 °C.

Compound `CC(=O)Nc1nc(CCc2ccc(N)cc2)c(C(=O)Nc2ccccc2)s1` registered a melting point of 104 to 105 °C.

Compound `C/C=C/c1ccc2c(NCc3ccc(NC(=O)c4ccc(F)cc4)cc3)nc(N(C)C)nc2c1` registered a melting point of 246 °C.

`COc1ccc(CNc2nc(OCc3ccccn3)ncc2C(N)=O)cc1Cl` yielded a melting point of 208 to 209 °C.

With `COc1ccc(CCOc2nccc(-c3cccc(C(=O)O)c3)n2)cc1OC`, the melting point was 171 to 172 °C.

Take `COC(=O)C1CCC2C3CC(O)C4(O)CC(O)CCC4(C)C3CCC12C` (stereo unspecified): the melting point lay in the range of 266 to 268 °C.

`CC1Cc2cc3c(cc2C(c2ccc(N)cc2)=NN1)OCO3` (stereo unspecified) yielded a melting point of 118 to 120 °C.

Regarding `Cn1nc(-c2ccccc2S(N)(=O)=O)oc1=O`, the melting point was 168 to 173 °C.

In turn, `CC[C@H](CCC(=O)OC(C)(C)C)C(=O)N[C@@H](Cc1ccccc1)C(=O)OC` gave a melting point of 120 to 121 °C.

Regarding `COCc1cc(OC)c(C=O)c(OC)c1`, the melting point was in the range of 72 to 76 °C.

`FC(F)(F)c1ccc(N=c2ccc3nc4ccccc4sc-3c2)cc1` had a melting point of 207 to 208 °C.

In turn, `COc1cc(Nc2c(C#N)cnc3cc4cc(OC)c(OCCCl)cc4cc23)c(Cl)cc1F` displayed a melting point of 193 to 204 °C.

The compound `CC(=O)N[C@@H](CSC(=O)[C@@H](C)c1ccc(CC(C)C)cc1)C(=O)O` registered a melting point of 123 to 125 °C.

Compound `COc1ccc(N2CCN(c3ccc(Nc4nc(-c5ccccc5)cs4)cc3)CC2)cc1` registered a melting point of 270 °C.

Compound `O=C(O)Cc1ccc2c(c1)C(=O)c1cc3ccccc3cc1C2=O` yielded a melting point greater than 220 °C.

With `Cc1c(-c2ccccc2)sc2c1c(=O)c(C(=O)C(C)C)cn2Cc1c(F)cccc1F`, the melting point was 205 to 207 °C.

For `O=C(N[C@H](Cc1cccc(OCC(F)(F)F)c1)[C@@H](O)c1ccc(F)cc1)c1cccc2c1C=CCCC2` (racemic), the melting point fell in the range of 172 to 173 °C.

As to `CCc1cc(N)c(I)c(CC)n1`, the melting point lay in the range of 72 to 74 °C.

Take `O=C(O)c1cccc(-c2ccc3c(c2)N(Cc2ccc(Cl)cc2Cl)CC3)c1`: the melting point was 175 to 176 °C.

The compound `NC(=O)c1nc(-c2cccc(O)c2)nc2c1[nH]c(=O)n2C1CCc2ccccc21` (stereo unspecified) showed a melting point of 341 to 343 °C.

The compound `[N-]=[N+]=NC1(O)CC(n2cc(I)c(=O)[nH]c2=O)OC1CO` (stereo unspecified) yielded a melting point of 126 to 130 °C.

The compound `CCN(CC1CCCC1)c1nc2c(cc1CN(Cc1cc(C(F)(F)F)cc(C(F)(F)F)c1)c1nc(C(F)(F)F)co1)c(C)nn2C` came in with a melting point of 139 °C.

Compound `O=C(O)CCC(=NOCc1ccc(OCc2cc(-c3ccccc3)no2)cc1)c1ccccc1` showed a melting point of 96 to 97 °C.

As to `O=C(O)c1cc2ccccc2c(=O)o1`, the melting point lay within 241 to 242 °C.

The compound `CCCCSc1ccc(C=O)cc1[N+](=O)[O-]` had a melting point of 93 °C.

On to `FC(F)(F)c1ccc(Oc2cc(Cl)nc(Cl)c2)c(Cl)c1`, for which the melting point stood at 66 °C.

`C#CCn1c(-c2ccccc2)nc(CC)c(CC(N)=O)c1=O` yielded a melting point of 196 to 198 °C.

With `Nc1nccc(OCCc2ccccc2)c1[N+](=O)[O-]`, the melting point was in the range of 131 to 132 °C.

`O=C1c2ccccc2CCc2ccc(Cl)cc21` had a melting point of 64 to 65 °C.

On to `CCC(=O)Nc1ccc(C(=O)C=CN(C)C)cc1`, for which the melting point was in the range of 161 to 163 °C.

Take `OC(c1cc(Cl)cc(Cl)c1)C(F)(F)C(F)(F)F` (stereo unspecified): the melting point was in the range of 71 to 73 °C.

The compound `COC(=O)c1ccc(OCC2CN(c3ccc(Cl)cc3)C(=O)O2)cc1` (stereo unspecified) came in with a melting point of 146 to 148 °C.

Compound `CN(C)c1ccc([N+](=O)[O-])c(CO)c1` came in with a melting point of 138 to 139 °C.

Consider `COC(=O)CCc1cnoc1-c1ccc(Cl)c(Br)c1`, for which the melting point lay within 54 to 55 °C.

The compound `CC(C)(C)CNc1cc(N2CCNCC2)nc(N2CCCC2)n1` returned a melting point of 140 to 145 °C.

For the compound `C1=Cc2c3c(ccc2=N1)=CC=N3`, the melting point was 201 to 205 °C.

Turning to `C=C1Cc2c(n(-c3ccccc3)c3ncccc3c2=O)O1`, the melting point lay within 259 to 261 °C.

Turning to `Oc1ccc(Cl)cc1C(O)(Cc1ccccc1)c1ccccc1` (stereo unspecified), the melting point is 128 °C.

Regarding `O=C(O)CCCCCCCCCCCCCCCCC(=O)n1nnc2ccccc21`, the melting point is 105 °C.

The compound `CCOC(=O)c1ccc(-c2coc(-c3ccc(Cl)cc3)n2)cc1` returned a melting point of 153 to 154 °C.

For the compound `OC1(c2ccc(C(F)(F)F)cc2)CCN(Cc2ccccc2)CC1`, the melting point lay within 115 to 117 °C.

In the case of `O=[N+]([O-])c1cc(-c2cccnc2)ccc1O`, the melting point was greater than 300 °C.

With `COC(=O)c1ccccc1S(=O)(=O)NC(=O)Nc1cc(C)cc(C)n1`, the melting point lay within 181 to 182 °C.

`O=[N+]([O-])c1cc(Cl)c(C=CN2CCN(c3nsc4ccccc34)CC2)cc1Cl` had a melting point of 194 to 195 °C.

In turn, `CCOC(=O)Nc1ccn2cc(C)nc2c1I` displayed a melting point of 148 °C.

Regarding `CN(C)C(=O)Nc1cc(C(C)(C)C)[nH]n1`, the melting point was 220 to 222 °C.

`CCOC(=O)C1=C(C)NC(C)=C(C(=O)OCCN2CCC(C(c3ccccc3)c3ccccc3)CC2)C1c1cccc(Cl)c1Cl` (stereo unspecified) returned a melting point of 81 to 85 °C.

As for `CCS(=O)(=O)Nc1cccc(COc2cc(F)cc(Nc3ccc(I)cc3F)c2C(N)=O)c1`, the melting point is 170 °C.

`CCc1cccc(-c2nc(C3CCCCC3)n(C)n2)n1` had a melting point of 79.2 °C.

Turning to `CC(C)COc1ccc(Br)cc1OCC(C)C`, the melting point came out at 47 °C.

`N#Cc1cc([N+](=O)[O-])ccc1N1CCC(OC(=O)c2ccccc2)CC1`: the melting point lay in the range of 143 to 145 °C.

In turn, `COc1ccc(-c2cnc3cc4cnn(C(C)=O)c4cc3n2)cc1F` had a melting point of 261 to 265 °C.

Compound `COC(=O)c1cc2c(nc1C1=NC(C)(C(C)C)C(=O)N1)CCOC2` (stereo unspecified) displayed a melting point of 208 to 220 °C.
